Holding throughout (assay): NCI anticancer screen, dose series, 48 h
Assay [1] concerns RPMI-8226 leukemia.
The subject of assay [2] is HS 578T breast.
The test system of assay [3] is NCI-H226 lung.
The subject of assay [4] is SW-620 colon.
Assay [5] relates to HOP-92 NSCLC.
Assay [6] concerns MCF7 breast.
Assay [7] relates to CAKI-1 renal.
For assay [8], the system named is PC-3 prostate.
For assay [9], the system named is BT-549 breast.
Assay [10] has as its system RXF 393 renal.

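How tested: cells in 96-well plates exposed to compound for 48 hours at five concentrations. The concentration for 50% growth inhibition is given as GI50. TGI marks complete inhibition of growth.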

Take `O=C(c1ccccn1)C1(N2CCCCC2)CCCCC1`: the TGI in assay [1] was more than 100 µM; in assay [2], 39.5 µM; in [3] it was more than 100 µM; in assay [4], more than 100 µM; in [5], 64.9 µM; in assay [6] it was more than 100 µM. In addition, the TGI in [7], in assay [8] and in assay [9] was more than 100 µM in each case.
Consider `Cn1c(=O)c2c(nc3n2CC(C(=O)O)N3)n(C)c1=O` (centres undefined), for which the TGI in [1], in assay [2], in assay [10], in assay [3], in [4] and in assay [5] was more than 100 µM throughout. In addition, the TGI in assay [6], in assay [7], in [8] and in assay [9] was more than 100 µM each time.
`CCC(=O)NCC1CCCN2CCCCC12` (centres undefined): the TGI in [1], in [2], in assay [10], in assay [3], in [4] and in assay [5] was more than 100 µM in each case. The TGI in assay [6], in assay [7], in assay [8] and in [9] was more than 100 µM throughout.
Turning to `O=S(=O)(c1ccccc1)c1cccc2c1NCCC2`, the TGI in [1] is more than 100 µM; in [2], more than 100 µM; in assay [10] it was 90.1 µM; in assay [3], more than 100 µM; in [4] it was more than 100 µM; in assay [5], more than 100 µM. For the same compound, the TGI in assay [6] is more than 100 µM; in [7], more than 100 µM; in assay [8], more than 100 µM; in assay [9], 83 µM.
For `c1ccc2c(c1)Cn1c-2nc2ccccc21`, the TGI in assay [1], in [2], in [10], in assay [3], in [4] and in assay [5] was more than 100 µM throughout. The TGI in assay [6], in assay [7], in assay [8] and in [9] was more than 100 µM throughout.
For `Nc1nc2c(c(-c3cccc(Cl)c3)n1)COC/C2=C\c1cccc(Cl)c1`, the TGI in assay [1], in assay [2], in assay [10], in assay [3], in [4] and in assay [5] was more than 100 µM in each case. The TGI in assay [6], in assay [7], in assay [8] and in assay [9] was more than 100 µM in each case.
For the compound `Cn1c2ccc3cc2c(=S)c2cc(ccc21)OCCOCCOCCOCCOCCOCCO3`, the TGI in [1], in [2], in assay [10], in [3], in assay [4] and in assay [5] was more than 10 µM throughout. Moreover, the TGI in assay [6], in assay [7], in assay [8] and in [9] was more than 10 µM throughout.
Consider `COc1ncc(/C=C2\OC(=O)c3ccccc32)c(OC)n1`, for which the TGI in assay [1], in assay [2], in assay [10], in assay [3], in assay [4] and in [5] was more than 100 µM in each case. The TGI in assay [6] was more than 100 µM; in [7], 36.8 µM; in assay [8], more than 100 µM; in assay [9] it was 10.9 µM.
Take `O=c1[nH]c(=S)[nH]c2c1C(c1ccc([N+](=O)[O-])cc1)c1c([nH]c(=S)[nH]c1=O)O2`: the TGI in assay [1], in assay [2], in assay [10], in assay [3], in assay [4] and in assay [5] was more than 100 µM throughout. In addition, the TGI in assay [6], in assay [7], in [8] and in assay [9] was more than 100 µM throughout.
On to `COc1ccc(N=NC(=Nc2ccccc2)c2ccc(N(CCC#N)CCC#N)cc2)cc1`, for which the TGI in assay [1], in [2], in [10], in assay [3], in assay [4] and in [5] was more than 100 µM in each case. For the same compound, the TGI in assay [6] was 73 µM; in assay [7] it was more than 100 µM; in [8], more than 100 µM; in assay [9] it was more than 100 µM.
As to `C(=C(c1ccc(OC2CCCCO2)cc1)c1ccc(OC2CCCCO2)cc1)c1ccccc1` (centres undefined), the TGI in [2] stood at 4.44 µM; in [10], 2.25 µM; in [3], 3.17 µM; in assay [4] it was 1.62 µM; in assay [5], 1.96 µM; in [6] it was 1.43 µM. For the same compound, the values for the TGI in assay [7], in assay [8] and in assay [9] were 1.92 µM, 1.59 µM and 1.5 µM, respectively.
As for `O=C(/C=C/c1ccc2c(c1)OCO2)c1ccc(O)cc1`, the TGI in assay [2] amounted to 34.1 µM; in assay [10], 29.6 µM; in [3], 37.9 µM; in assay [4], 26.3 µM; in assay [5] it was 28.8 µM; in assay [6] it was 23.1 µM. The results for the TGI in assay [7], in [8] and in assay [9] were 28.7 µM, 29.4 µM and 27.4 µM, respectively.
Consider `Nc1ncnc2c1[nH]c(=O)n2-c1ccccc1`, for which the TGI in assay [1], in [2], in assay [4], in assay [5], in [6] and in assay [7] was more than 100 µM in each case. For the same compound, the TGI in assay [8] and in [9] was more than 100 µM each time.
Take `Nn1c(-c2ccccc2)n[nH]c1=O`: the TGI in assay [1], in assay [2], in [3], in assay [4], in [5] and in [6] was more than 100 µM throughout. The TGI in assay [7], in assay [8] and in assay [9] was more than 100 µM each time.
With `Nn1c(Nc2ccc(S(=O)(=O)Nc3ncccn3)cc2)nnc(/C=C/c2c(O)ccc3ccccc23)c1=O`, the TGI in assay [1] is more than 100 µM; in [2], more than 100 µM; in assay [10], 80.3 µM; in assay [4], more than 100 µM; in assay [5] it was more than 100 µM; in [6], 60.3 µM. Also, the TGI is 89.9 µM in assay [7], more than 100 µM in assay [8] and 60 µM in [9].
Consider `COc1ccc(CN2C(=O)/C(=C\c3cc(OC)c(OC)c(OC)c3)c3ccccc32)cc1`, for which the GI50 was 2.47 µM in [1]; 3.78 µM in assay [2]; 2.96 µM in [3]; 2.15 µM in assay [4]; 1.96 µM in assay [5]; 2.86 µM in assay [6]. Also, the GI50 is 2.63 µM in [7], 3.14 µM in assay [8] and 1.08 µM in assay [9]. Further, the TGI came out at 7.57 µM in assay [1]; 55.5 µM in assay [2]; 9.23 µM in assay [3]; 4.85 µM in [4]; 7.3 µM in [5]; 15.9 µM in assay [6]. Also, the figures for the TGI in [7], in assay [8] and in [9] were 20.3 µM, more than 100 µM and 7.53 µM, respectively.
As for `CC(=O)Nc1nc(NC(C)=O)c2[nH]c(CO)nc2n1`, the TGI in [2], in assay [10], in assay [3], in [4], in assay [5] and in assay [6] was more than 100 µM throughout. In addition, the TGI in [7], in [8] and in assay [9] was more than 100 µM in each case.
Regarding `COc1ccc(-c2[nH]c3c4c(nc5c(c24)C(=O)CC(C)(C)C5)CC(C)(C)C3)cc1`, the TGI in assay [2], in assay [10], in assay [3], in assay [4], in assay [5] and in [6] was more than 100 µM in each case. For the same compound, the TGI in assay [7] is more than 100 µM; in assay [8], 92.6 µM; in assay [9] it was more than 100 µM.
Regarding `COc1cccc(Nc2nc(-c3cccs3)nc3cc(OC)c(OC)cc23)c1`, the TGI is 27.3 µM in assay [1]; 75.3 µM in [2]; more than 100 µM in assay [3]; 52.4 µM in [4]; 51.9 µM in assay [5]; 49.2 µM in [6]. For the same compound, the TGI in assay [7] turned out to be 73.4 µM; in assay [8] it was 92.7 µM; in [9] it was 86 µM.
As for `COC(=O)C1=C(C(=O)OC)SC(=C2SCSC3=C2SC(C(=O)OC)=C(C(=O)OC)C32SC3=C(CCCC3)S2)S1`, the TGI in [2] was more than 100 µM; in assay [10] it was 70 µM; in assay [3], more than 100 µM; in assay [4], more than 100 µM; in assay [5], more than 100 µM; in assay [6], more than 100 µM. Further, the TGI in [7], in assay [8] and in [9] was more than 100 µM throughout.
For `CCOC(=O)c1c(CN2CCCC2)n(-c2ccccc2)c2cc(Br)c(O)cc12`, the TGI in assay [1] stood at 39.5 µM; in assay [2] it was 74.9 µM; in assay [10], 25.6 µM; in assay [4], 42.5 µM; in [5], 44 µM; in [6], 39.5 µM. Besides, the TGI in assay [7] was found to be 40.8 µM; in assay [8], 48.5 µM; in assay [9] it was 55.8 µM.
`Nc1nc(-c2ccccc2)nc2oc(-c3cccs3)nc12`: the TGI in assay [1], in assay [2], in assay [10], in [3], in assay [4] and in assay [5] was more than 100 µM in each case. The TGI in assay [6], in assay [8] and in [9] was more than 100 µM in each case.
Turning to `N#CC(Cc1ccccc1)N(CCC1=CCCCC1)C(c1ccccc1)c1ccccc1` (centres undefined), the TGI in assay [1], in [2], in assay [10], in [4], in [5] and in assay [6] was more than 100 µM throughout. In addition, the TGI in assay [7], in assay [8] and in assay [9] was more than 100 µM each time.
On to `O=C(Cc1ccc(O)c(O)c1)NCc1c[nH]c2ccccc12`, for which the TGI in assay [1], in assay [2], in [10], in assay [4], in assay [5] and in assay [6] was more than 100 µM each time. The TGI in assay [7], in assay [8] and in assay [9] was more than 100 µM each time.
Consider `C/C(=C\CBr)CCC(Br)C(C)(C)Br` (centres undefined), for which the TGI in assay [1], in [2], in [10], in assay [3], in assay [4] and in assay [5] was more than 100 µM throughout. Further, the TGI in [6], in [8] and in assay [9] was more than 100 µM each time.
For `CC(=O)N1C(C(=O)NC2CCCCC2)CSC1c1ccccc1` (centres undefined), the TGI in assay [1], in assay [2], in assay [3], in assay [4], in [5] and in assay [6] was more than 100 µM in each case. For the same compound, the TGI in [7], in assay [8] and in [9] was more than 100 µM in each case.
Regarding `Oc1ccc2c(c1)c1c(n2CCN2CCOCC2)-c2ccccc2CC1`, the TGI was more than 100 µM in assay [1]; 56.9 µM in [2]; 75.7 µM in [10]; 85.6 µM in [3]; more than 100 µM in assay [4]; more than 100 µM in [6]. Moreover, the TGI in assay [7], in assay [8] and in assay [9] was more than 100 µM throughout.
`Cc1oc2c(cc(O)c3cc(O)ccc32)c2cccc1-2`: the TGI in assay [1], in assay [2], in [10], in assay [4], in [5] and in [6] was more than 100 µM in each case. Also, the TGI in assay [7] was more than 100 µM; in assay [8], more than 100 µM; in assay [9], 44 µM.
